{
  "source": "ChEMBL document CHEMBL1134912",
  "about": "“Cytotoxic acridinylthiourea and its platinum conjugate produce enzyme-mediated DNA strand breaks” (Bioorg Med Chem Lett, 2002)",
  "key": {"Nucleic Acid": {"test_system": "Nucleic Acid", "experiment": "Compound was tested for the induction of DNA strand breaks at concentrations of 0.1 and 0.5 uM; Active", "format": "nucleic-acid assay"}, "Ovarian cancer cell line": {"test_system": "Ovarian cancer cell line", "experiment": "Clonogenic survival activity against human ovarian cancer cells (2008, C13*) cells; 0.01-10 range", "format": "functional, cell-based"}, "[1]": {"experiment": "Concentration required for complete inhibition of relaxation of supercoiled plasmid (form I) at concentrations", "format": "functional"}},
  "note": "Active and inactive are the calls of the source. The calls are words filed in the database; no cut-off is given here.",
  "data": [
    {"smiles": "CNC(=S)N(C)CCNc1c2ccccc2nc2ccccc12", "values": [
      {"measurement": "Activity", "setting": "Nucleic Acid", "result": "Active"},
      {"measurement": "IC50", "setting": "Ovarian cancer cell line", "result": 10, "unit": "nM"},
      {"measurement": "Inhibition concentration", "setting": "[1]", "result": "> 25", "unit": "µM"}
    ]}
  ]
}
